Experimental data from patent publication US20100105610A1, “Methods of Inhibiting Tumor Cell Aggressiveness Using the Microenvironment of Human Embryonic Stem Cells” (CHILDREN'S MEMORIAL HOSPITAL, priority 2006, published 2010).

Key:
C8161 cells [1] = assay: Anchorage independent growth / soft agar colony formation, C8161; format: cell-based, human; settings: C8161 cells, soft agar, after 2 weeks
Description: An in vitro colony forming assay was used to analyze colony-forming ability of poorly aggressive C81-61 cells, aggressive C8161 cells, C8161 cells treated with MONodal and C8161 cells treated with MONodal and rescued with recombinant Nodal (100 ng/mL). The assay was conducted using 50,000 cells suspended in 0.35% agarose in RPMI containing 10% serum, which were plated into 6-well dishes on 0.5% agar in the same medium. Colonies grew, and pictures were taken at day 7. After 2 weeks, colonies were stained with Crystal Violet and counted.
Clonogenicity of cells are assessed as previously described. Hamburger, A. W., and Salmon, S. E., 1977, Science 197:461-463. Each parameter is tested in triplicate for clone formation in soft agar. Briefly, […] are plated in 60 mm Petri dishes in complete medium placed over the soft agar. On specific days after the cells are plated, phase contrast images of the colonies are taken using a Zeiss Axiovert 25 with an Hitachi HCV-20 color camera.
Anchorage independent growth assays were conducted as previously described. Topczewska et al., 2006, Nat. Med. 12: 925-932.

[2] = test system: MDA-MB-231 breast carcinoma cells; assay: In vivo tumor formation, MDA-MB-231 cells injected into the mammary fat pad; set-up: species or system mouse; settings: 500,000 Morpholino-treated MDA-MB-231 cells injected, vs control
Text: The effects of the hESC microenvironment on the in vivo tumorigenicity of melanoma and breast carcinoma cells were examined using orthotopic mouse models. […] In order to further substantiate the role of Nodal in tumorigenicity, and to illuminate a potential mechanism for the tumor-suppressive properties of the hESC microenvironment, previously shown to diminish Nodal expression (FIG. 9), orthotopic mouse models were utilized to examine the effects of: (a) Ectopic Nodal expression on the tumorigenic potential of C81-61 cells (isogenetically matched non-tumorigenic variants of the metastatic C8161 melanoma cell line); and (b) Nodal inhibition on MDA-MB-231 breast carcinoma tumorigenicity. The control C81-61 melanoma cell line was unable to form palpable tumors when 500,000 cells were injected, and using gross observation and histology 5.5 weeks after inoculation, these tumor cells could not be detected at the site of injection. In contrast, 100% of C81-61 cells transfected with a Nodal expression vector formed palpable tumors within 3.5 weeks of injection (FIG. 13B).
5 week old mice were injected subcutaneously with 250,000 C8161 or 500,000 C81-61 human cutaneous melanoma cells in 50 μL of complete RPMI; or 500,000 MDA-MB-231 cells in 50 μL of complete RPMI were injected into the mammary fat pad of 8 week old mice. When tumors became palpable measurements were taken twice per week.

C8161 cells [3] = assay: In vitro proliferation assay (cell count), C8161; format: cell-based, human; settings: C8161, relative to MO Control; 4 days after plating 15,000 cells

With “MO^Nodal: antisense Morpholino to Nodal, 5′-AAGCAGCACCTCCAGCCCTTATATC-3′ (SEQ ID NO: 20) (all phosphorodiamidate morpholino (PMO); further chemistry not fully specified)” the “reduction of colony formation” value (C8161 cells [1]) was 57%, the tumorigenicity [2] was “significant reduction” and the “in vitro cell proliferation” value (C8161 cells [3]) was “reduced proliferation”.
